In patent US5773469A, “Diaryl antimicrobial agents” (Ortho Pharmaceutical Corporation, priority 1996, dated 1998):
Counter-ions that a name gives are not always drawn.

These compounds were tested on gram positive bacteria / Gram negative bacteria (Enterococcus faecalis, Staphylococcus aureus incl. methicillin resistant, Staphylococcus epidermidis …) (assay: MIC antimicrobial assay (NCCLS microdilution broth method)). Conditions: MIC value range over the selected gram positive and gram negative test organisms; 35° C., 16-20 hours.
Format: cell-based
Method: 2. MIC Antimicrobial Assay
The in vitro antimicrobial activity of the compounds was determined by the microdilution broth method following the test method from the National Committee for Laboratory Standards (NCCLS). This method is described in the NCCLS Document M7-A2, Vol.10, No. 8 "Methods for Dilution Antimicrobial Susceptibility Test for Bacteria that Grow Aerobically-Second Edition."
In this method two-fold serial dilutions of drug in cation supplemented Mueller-Hinton broth are added to wells in microdilution trays. The test organisms are prepared by adjusting the turbidity of actively growing broth cultures so that the final concentration of test organism after it is added to the wells is approximately 5×10^4 CFUs/well).
Following inoculation of the microdilution trays, the trays are incubated at 35° C. for 16-20 hours and then read. […] The amount of growth in the wells containing the test compound is compared with the amount of growth in the growth-control wells (no test compound) used in each tray. The following test organisms were utilized in the assay:
Enterococcus faecalis ATCC 29212
Enterococcus faecalis oc 3041
Enterococcus faecalis oc 2993
Methicillin resistant Staphylococcus aureus oc 2089
Methicillin resistant Staphylococcus aureus oc 667
Staphylococcus aureus ATCC 29213
Staphylococcus aureus ATCC 6538
Staphylococcus epidermidis oc 2603
Escherichia coli oc 2530 ss […]
For N=C(N)NCc1cccc(OCCC(c2ccccc2)c2ccccc2)c1 [Compound 7, [3-(3,3-DIPHENYLPROPOXY)PHENYL]METHYLGUANIDINE BICARBONATE 0.5 HYDRATE], the “MIC(G+/G-)” value was 2-32.

The compounds below were run against T1, Kinase A and SpoOF (Bacillus subtilis, UniProt P16497) (assay: Autophosphorylation of Kinase A and transphosphorylation of SpoOF assay (HPK in vitro assay)). Conditions: inhibition of KinA autophosphorylation / SpoOF transphosphorylation, [32P]ATP, gel and phosphoimager.
T1 sequence (P16497 1-606): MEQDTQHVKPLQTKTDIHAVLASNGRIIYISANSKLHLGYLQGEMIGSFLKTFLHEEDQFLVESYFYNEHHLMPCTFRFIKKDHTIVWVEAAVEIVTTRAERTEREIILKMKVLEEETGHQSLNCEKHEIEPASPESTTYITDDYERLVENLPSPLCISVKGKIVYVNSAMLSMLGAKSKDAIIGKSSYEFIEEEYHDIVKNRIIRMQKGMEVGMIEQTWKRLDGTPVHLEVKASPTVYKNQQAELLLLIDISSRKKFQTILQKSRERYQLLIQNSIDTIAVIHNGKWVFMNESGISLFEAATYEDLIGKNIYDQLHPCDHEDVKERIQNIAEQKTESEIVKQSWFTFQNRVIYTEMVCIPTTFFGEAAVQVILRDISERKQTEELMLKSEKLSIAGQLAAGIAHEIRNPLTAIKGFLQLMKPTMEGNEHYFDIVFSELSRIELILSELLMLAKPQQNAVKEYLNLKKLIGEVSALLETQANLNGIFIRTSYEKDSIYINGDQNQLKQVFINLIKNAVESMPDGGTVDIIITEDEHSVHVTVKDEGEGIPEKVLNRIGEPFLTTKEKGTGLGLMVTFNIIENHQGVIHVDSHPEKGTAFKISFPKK
Format: biochemical
Method: 1. Autophosphorylation of Kinase A and Transphosphorylation of SpoOF Assay
To study the effect of the compounds of the present invention on the signal transduction process in bacteria, the inhibiting effect of the compounds on the sporulation operon proteins Kinase A and SpoOF was examined. Specifically, the inhibition of autophosphorylation of Kinase A and the transphosphorylation of SpoOF was determined in the following assays. The SpoOF response regulator is the primary substrate for phosphorylation by the protein kinase, Kin A, involved in the sporulation process in bacteria. See D. Burbulys, K. A. Trach, J. A. Hoch, Cell, 64, 545-552 (1991).
The following stock reagents were either prepared and used promptly or stored at the indicated temperature:
8× Salts: 2M KCl (5 mL), 1M MgCl2 (800 mL), 1M CaCl2 (100 mL), 10 mg/mL phenylmethylsulfonyl fluoride (200 mL), 1M dithioreitol (50 mL), 0.25M Na2 EDTA (32 mL) and H2 O 3.82 mL (-20°C.)
5× Loading Dye: 0.5M TRIS-HCl-pH 6.8 (7.5 mL), 10% SDS (2 mL) 0.1% bromophenol blue (0.5 mL), 100% glycerol (3 mL) and 12.5M 2-mercaptoethanol (0.3 mL)
1-1.3 mg/mL KinA:15 mM TRIS-HCl, pH 8.0, 6 mM KCl; 4 mM 2-mercaptoethanol; 40% glycerol (-20 C.)
1 mg/mL Spo0F: 17.5 mM TRIS-HCl, pH 8.0; 0.7 mM KCl; 0.7 mM MgCl2; 0.7 mM CaCl2; 5 mM 2-mercaptoethanol; 30% Glycerol (-20°C.)
5% Stacking Gel: 40% 29:1 acrylamide:bis acrylamide (1.25 mL), 0.5M TRIS-HCl, pH 6.8 (2.5 mL), 10% SDS (0.1 mL), D-H2 O (6.15 mL) 10% ammonium persulfate (100 mL) and TEMED (25 mL)
SDS Running Buffer: TRIS-BASE (3.02 g), glycine (14.4 g) SDS (1 g), D-H2 O (to 1 L)
The reaction mixture was prepared from 8× Salts (87 μL), 1M TRIS, pH 8 (118 EL), 50% glycerol (63 μL), Spo0F (14.1 μL) and KinA (7.0 μL). Microcentrifuge tubes were charged with the reaction mixture (18.5 μL) and a 1.0 mM solution of the test compound in 5% DMSO (18.5 μL), and incubated for 15 min on ice. 100 mM ATP solution (3.0 μI, containing 625 μCi [^32 P]ATP) was added, and the mixture left for 10 minutes at room temperature. The reaction was quenched with 5× loading dye (10 μL per tube) and the samples were loaded on a prepared 5% Stacking Gel, or stored on dry ice until ready for use. The prepared wells were filled with SDS Running Buffer, samples were loaded into the wells, and 80 volts were applied to the gel until the dye front reached the bottom of the stacking gel. The voltage was then increased to 250 volts until electrophoresis was complete. Radioactive bands in the gel corresponding to phosphorylated KinA and SpoOF were imaged and quantitated with a phosphoimager.
If either enzyme was inhibited (as evidenced by the absence of labelled protein in the developed gel), an IC50 was calculated by running the assay with a range of inhibitor concentrations from 1 to 500 μM. After electrophoresis of the reaction mixtures, percent inhibition was determined by measuring the concentration of radioactive phosphorus with a phosphoimager and calculating the values using a software program (BioRad Molecular Analyst).
With NCCc1ccc(O[C@@H]2CC[C@H](c3ccccc3)c3ccccc32)cc1 (relative stereo) [Compound 6, 2-[4-(ClS-4-PHENYL-1,2,3,4-TETRAHYDRO-1-NAPHTHOXY)PHENYL]-ETHYLAMINE OXALATE] the IC50 was 68.9 µM. Compound NCCc1ccc(OCCC(c2ccccc2)c2ccccc2)cc1 [Compound 2, 2-[4-(3,3-DIPHENYLPROPOXY)PHENYL]ETHYLAMINE] has an IC50 of 31.25 µM. Work on N=C(N)NCCc1ccc(OCCC(c2ccccc2)c2ccccc2)cc1 [Compound 3, 2-[4-(3,3-DIPHENYLPROPOXY)PHENYL]ETHYLGUANIDINE] yielded an IC50 of 21.5 µM. Compound N=C(N)NCCc1ccc(OCCC2c3ccccc3-c3ccccc32)cc1 [Compound 4, {2-[4-[2-(9-FLUORENYL)ETHOXY]PHENYL]ETHYL}GUANIDINE] has an IC50 of 19.8 µM. For N=C(N)NCc1cccc(OCCC(c2ccccc2)c2ccccc2)c1 [Compound 7, [3-(3,3-DIPHENYLPROPOXY)PHENYL]METHYLGUANIDINE BICARBONATE 0.5 HYDRATE], the IC50 was 60 µM. For NCc1cccc(OCCC(c2ccccc2)c2ccccc2)c1 [Compound 8, [3-(3,3-DIPHENYLPROPOXY)PHENYL]METHYLAMINE·HYDROCHLORIDE·0.6 HYDRATE], the IC50 was 42.9 µM. With NCCc1ccc(OCC=C(c2ccccc2)c2ccccc2)cc1 [Compound 9, 2-[4-(3,3-DIPHENYL-2-PROPENOXY)PHENYL]ETHYLAMINE HYDROCHLORIDE·0.5HYDRATE] the IC50 was 41 µM. In the case of NCCc1ccc(OC(c2ccccc2)c2ccccc2)cc1 [Compound 10, 2-{4-(2-DIPHENYL-2-METHOXY)PHENYL}ETHYLAMINE·HYDROCHLORIDE·HYDRATE], the IC50 is reported as 68 µM. With NCCCc1ccc(OCC=C(c2ccccc2)c2ccccc2)cc1 [Compound 11, 3-[4-(3,3-DIPHENYL-2-PROPENOXY)PHENYL]PROPYLAMINE·OXALATE] the IC50 was 19.5 µM. Compound O=CN1CCN(c2ccc(OCCC(c3ccccc3)c3ccccc3)cc2)CC1 [Compound 12, 1-FORMYL-4-[4-(3,3-DIPHENYLPROPOXY)PHENYL]PIPERAZINE·0.5 HYDRATE] has an IC50 of 165 µM. In the case of O=C(CC(c1ccccc1)c1ccccc1)Nc1ccc(N2CCNCC2)cc1 [Compound 13, 4-[4-(3,3-DIPHENYLPROPANOYLAMINO) PHENYL]PIPERAZINE·0.5 HYDRATE], the IC50 is reported as 379.4 µM. O=C(O)C(=O)O.c1ccc(C(CCOc2ccc(N3CCNCC3)cc2)c2ccccc2)cc1 [Compound 14, 4-[4-(3,3-DIPHENYLPROPOXY)PHENYL]PIPERAZINE OXALATE] was tested, and the IC50 was 130.4 µM. C1=C(c2ccc(OCCC(c3ccccc3)c3ccccc3)cc2)CCNC1 [Compound 15, 4-[4-(3,3-DIPHENYLPROPYLOXY)PHENYL]-1,2,3,6-TETRAHYDROPYRIDINE·HYDROCHLORIDE 0.6 HYDRATE] gave an IC50 of 45.6 µM. Brc1ccc(OCCC(c2ccccc2)c2ccccc2)cc1 [Compound 17, 4-(3,3-DIPHENYLPROPOXY)BROMOBENZENE] gave an IC50 of 643.5 µM. NCCc1ccc(OCCC(c2ccccc2)c2cccnc2)cc1 (stereo not drawn) [Compound 18, 2-[4-(3-PHENYL-3-(3-PYRIDYL)PROPOXY)PHENYL]ETHYLAMINE·OXALATE·0.1 HYDRATE] was tested, and the IC50 was > 100 µM. For NCCc1ccc(NC/C=C(/c2ccccc2)c2cccnc2)cc1 [Compound 20, Z-2-[4-(3-PHENYL-3-(3-PYRIDYL)PROPENYLAMINO)PHENYL]-ETHYLAMINE·OXALATE·0.2DIETHYL ETHER·0.15 ETHYL ACETATE·0.5 HYDRATE], the IC50 was > 500 µM. For NCCc1ccc(NC/C=C(\c2ccccc2)c2cccnc2)cc1 [Compound 21, E-2-[4-(3-PHENYL-3-(3-PYRIDYL)-2-PROPENYLAMINO)PHENYL]-ETHYLAMINE·OXALATE·0.33 ETHYL ACETATE·0.5 HYDRATE], the IC50 was > 500 µM. For N=C(N)NCCc1ccc(OCCN(Cc2ccccc2)Cc2ccccc2)cc1 [Compound 23, 2-[4-(2-[N,N'-DIBENZYLAMINO]-ETHOXY)PHENYL]ETHYLGUANIDINE], the IC50 was 60 µM. With c1ccc(C(OCCOc2ccc(N3CCNCC3)cc2)c2ccccc2)cc1 [Compound 24, 4-[4-{2-(DIPHENYLMETHOXY)ETHOXY}PHENYL]PIPERAZINE·CARBONATE 2.0 HYDRATE] the IC50 was 769 µM. Work on C1=C(c2ccc(OCCOC(c3ccccc3)c3ccccc3)cc2)CCNC1 [Compound 25, 4-{4-[2-(DIPHENYLMETHOXY) ETHOXY]PHENYL}-1, 2, 3, 6-TETRAHYDROPYRIDINE·MONOOXALATE 0.5 HYDRATE] yielded an IC50 of 313 µM.
